Literature values, collected in US20240252348A1, “EVA SEGMENTED INTRAVAGINAL RINGS CONTAINING PROGESTERONE” (priority 2019, published 2024).

Tested on: women with a short cervix
Details: singleton pregnant women with short cervical length (SCL)

## CCCCCC(=O)O[C@]1(C(C)=O)CC[C@H]2[C@@H]3CCC4=CC(=O)CC[C@]4(C)[C@H]3CC[C@@]21C [Makena, 17-alpha hydroxyprogesterone caproate]
  prevention of preterm birth: ineffective
